Like-named read-outs stand apart in the source and are kept apart here.
Key:
[1] = Dispersant binding reversibility: successive filtrations and re-dispersions in HEPES, followed by DLS; format: physicochemical; settings: room temperature, anchor named, coupled to PEG(MW 5 kDa)
Experimental: DLS: DLS experiments were run on a Zetasizer Nano ZS (Malvern, UK) in the 173° backscattering mode. Because intensity weighted diameters scale with r^6 and thus large particles are predominant, volume weighted data which scale with r^3 were analyzed using the multiple narrow modes evaluation incorporated into the Malvern software. Temperature dependent DLS experiments have been performed in HEPES at an iron oxide nanoparticle concentration of 200 µg/ml. Solutions were filtered with 200 nm Minisart syringe filters (Sartorius, Germany) prior to DLS analysis. These suspensions were heated from 25 to 90°C in 5°C steps with 10 min equilibration time before the respective DLS experiment. The dispersant binding reversibility was tested on iron oxide nanoparticle HEPES solutions (500 µg/ml) at room temperature. Solutions were repeatedly filtered using Microcon filters with a cut-off of 30 kDa (Millipore, MA, USA) by centrifuging these solutions at […] for 20 min (MiniSpin, Vaudaux Eppendorf, Switzerland). After filtration, the filter cake was re-suspended in HEPES (0.5 ml) and equilibrated for 24 h at room temperature before the next DLS experiment was performed.
The binding reversibility of these dispersants was tested by successive filtrations and re-dispersions of the resulting iron oxide nanoparticle filter cakes in HEPES

[2] = pKa determination by titration; format: physicochemical; settings: titration in Millipore water containing 150 mM NaCl, for nitrocatechols and mimosine one of the pKa values
Experimental: pKa determination: 2 mM of the respective anchoring group was dissolved in Millipore water containing 150 mM NaCl. These solutions were titrated with 0.1 M HCl and NaOH respectively using a SevenMulti pH meter (Mettler Toledo, Switzerland).

| Compound | number of filtrations for which nanoparticles remained stable [1] | pKa ([2]; read-out: pKa) | number of filtrations within which nanoparticles agglomerated [1] | pKa [2] |
| --- | --- | --- | --- | --- |
| NC(Cc1cc(O)c(O)cc1[N+](=O)[O-])C(=O)O (stereo not shown) | more than 9 filtrations | ~6.5 |  |  |
| N[C@@H](Cc1ccc(O)c(O)c1)C(=O)O [DOPA] |  | > 9 | 5-7 filtrations |  |
| NCCc1ccc(O)c(O)c1 [dopamine] |  | > 9 | 0-3 filtrations |  |
| NC(Cn1ccc(=O)c(O)c1)C(=O)O (stereo not shown) [mimosine] |  | ~6.5 | 5-7 filtrations |  |
| NCCc1cc(O)c(O)cc1[N+](=O)[O-] [nitrodopamine] |  |  |  | around 6.5 |
| hydroxydopamine |  |  | 0-3 filtrations | > 9 |
| hydroxypyridine |  |  | 0-3 filtrations |  |
| hydroxypyrone |  |  | 0-3 filtrations |  |
